Source: patent publication US10508120B2, “TYK2 inhibitors and uses thereof” (Nimbus Lakshmi, Inc., priority 2017, dated 2019)
Like-named read-outs stand apart in the source and are kept apart here.

What was measured:
[1] = biological target: Tyk2/JAK2 (heterodimeric complex) (Homo sapiens (Human), UniProt P29597); experiment: IL-12 Induced pSTAT4 in Human PBMC; format: cell-based; conditions: 1.7 ng/mL IL-12
Description: The IL-12 Induced pSTAT4 assay evaluates the inhibition of IL-12 induced STAT4 phophorylation mediated by Tyk2/JAK2 (heterodimeric complex).

Tyk2 kinase domain (DH1) = Tyk2 kinase domain (DH1) (Homo sapiens (Human), UniProt P29597); experiment: Tyk2 Radioactive Kinase Assay; format: biochemical; conditions: read-out: Tyk2 JH1% Inhibition @ 10 μM
Method in brief: (§1)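 Single-point screen: 10 μM test compound, radioactive kinase read-out, percent inhibition reported for each kinase domain.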

[2] = biological target: human TYK2 (JH2domain-pseudokinase) (Homo sapiens (Human), UniProt P29597); experiment: TYK2 JH2 Domain Binding Assay (KINOMEscan)
Method in brief: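 Kds, run in duplicate, came from Hill fits (slope fixed at −1) of an 11-point 3-fold dilution series starting at 30,000 nM. Bead-retained TYK2 JH2 (aa G556–D888)–NFkB DBD fusion, DNA-tagged and expressed in HEK293 cells, was read by qPCR after 1 h room-temperature binding in 0.9% DMSO.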

JAK2 kinase domain (JH1) = JAK2 kinase domain (JH1) (Homo sapiens (Human), UniProt O60674); experiment: JAK2 Radioactive Kinase Assay; format: biochemical; conditions: read-out: JAK2 JH1% Inhibition @ 10 μM
Method in brief: as §1

[3] = biological target: JAK2/JAK2 homdimeric complex (Homo sapiens (Human), UniProt O60674); experiment: GM-CSF Induced pSTAT5 in Human PBMC; format: cell-based; conditions: GM-CSF 5 ng/mL for 20 minutes, pSTAT5 by MSD, read-out: PBMC_GMCSF_pSTAT5 IC50
JAK2/JAK2 homdimeric complex, sequence (O60674 whole entry): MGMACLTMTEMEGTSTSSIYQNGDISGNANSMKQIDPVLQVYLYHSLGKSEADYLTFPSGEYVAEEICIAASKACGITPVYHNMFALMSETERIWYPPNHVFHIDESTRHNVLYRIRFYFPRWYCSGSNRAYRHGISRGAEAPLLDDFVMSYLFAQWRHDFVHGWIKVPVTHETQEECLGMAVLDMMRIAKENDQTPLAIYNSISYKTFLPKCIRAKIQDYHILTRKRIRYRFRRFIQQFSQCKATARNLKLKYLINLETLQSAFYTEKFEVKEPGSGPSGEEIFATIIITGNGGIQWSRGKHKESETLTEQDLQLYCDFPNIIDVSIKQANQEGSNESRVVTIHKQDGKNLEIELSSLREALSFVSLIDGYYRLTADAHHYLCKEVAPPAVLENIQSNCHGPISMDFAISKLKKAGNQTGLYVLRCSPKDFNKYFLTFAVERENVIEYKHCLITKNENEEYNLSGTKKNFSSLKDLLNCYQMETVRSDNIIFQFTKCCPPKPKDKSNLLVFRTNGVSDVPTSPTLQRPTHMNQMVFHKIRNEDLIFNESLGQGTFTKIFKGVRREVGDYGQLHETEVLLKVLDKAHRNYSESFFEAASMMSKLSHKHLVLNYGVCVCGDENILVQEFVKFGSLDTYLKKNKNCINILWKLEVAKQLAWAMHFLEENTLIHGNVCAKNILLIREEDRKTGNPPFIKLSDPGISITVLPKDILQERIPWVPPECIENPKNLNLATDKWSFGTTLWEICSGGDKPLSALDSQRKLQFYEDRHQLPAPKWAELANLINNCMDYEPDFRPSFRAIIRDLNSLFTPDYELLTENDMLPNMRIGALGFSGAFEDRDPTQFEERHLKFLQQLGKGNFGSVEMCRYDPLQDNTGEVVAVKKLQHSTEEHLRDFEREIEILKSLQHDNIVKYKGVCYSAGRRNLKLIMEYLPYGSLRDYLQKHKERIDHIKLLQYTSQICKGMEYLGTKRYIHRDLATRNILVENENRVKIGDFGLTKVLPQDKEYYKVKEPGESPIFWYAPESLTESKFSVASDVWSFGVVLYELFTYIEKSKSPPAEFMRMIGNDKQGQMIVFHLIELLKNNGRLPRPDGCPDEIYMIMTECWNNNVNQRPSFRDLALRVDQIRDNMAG
JAK2/JAK2 homdimeric complex, sequence (P32927 17-897 partner): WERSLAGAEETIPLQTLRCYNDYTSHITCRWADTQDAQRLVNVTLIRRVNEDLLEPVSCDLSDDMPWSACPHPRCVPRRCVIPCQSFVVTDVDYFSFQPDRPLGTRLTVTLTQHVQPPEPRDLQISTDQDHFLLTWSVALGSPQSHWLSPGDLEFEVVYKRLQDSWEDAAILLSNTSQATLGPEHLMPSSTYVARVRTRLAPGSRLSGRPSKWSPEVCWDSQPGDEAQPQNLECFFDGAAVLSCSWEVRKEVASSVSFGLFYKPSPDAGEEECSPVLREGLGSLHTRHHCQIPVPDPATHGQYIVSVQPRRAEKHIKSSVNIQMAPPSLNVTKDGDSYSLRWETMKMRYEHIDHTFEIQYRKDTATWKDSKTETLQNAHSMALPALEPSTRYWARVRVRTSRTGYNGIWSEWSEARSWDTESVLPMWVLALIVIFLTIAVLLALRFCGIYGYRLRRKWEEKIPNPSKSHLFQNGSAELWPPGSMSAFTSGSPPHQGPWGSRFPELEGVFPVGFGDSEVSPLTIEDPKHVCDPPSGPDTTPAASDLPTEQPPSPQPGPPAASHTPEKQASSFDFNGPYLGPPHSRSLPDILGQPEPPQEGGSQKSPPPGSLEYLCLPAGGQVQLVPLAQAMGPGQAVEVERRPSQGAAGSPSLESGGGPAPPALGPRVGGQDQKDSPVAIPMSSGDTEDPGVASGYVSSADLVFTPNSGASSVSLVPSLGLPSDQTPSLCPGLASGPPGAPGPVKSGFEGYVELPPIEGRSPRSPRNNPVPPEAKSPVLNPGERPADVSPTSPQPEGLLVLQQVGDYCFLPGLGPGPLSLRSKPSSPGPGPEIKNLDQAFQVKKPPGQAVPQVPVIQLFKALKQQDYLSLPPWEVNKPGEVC

human TYK2 (JH2domain-pseudokinase), sequence (P29597 556-888): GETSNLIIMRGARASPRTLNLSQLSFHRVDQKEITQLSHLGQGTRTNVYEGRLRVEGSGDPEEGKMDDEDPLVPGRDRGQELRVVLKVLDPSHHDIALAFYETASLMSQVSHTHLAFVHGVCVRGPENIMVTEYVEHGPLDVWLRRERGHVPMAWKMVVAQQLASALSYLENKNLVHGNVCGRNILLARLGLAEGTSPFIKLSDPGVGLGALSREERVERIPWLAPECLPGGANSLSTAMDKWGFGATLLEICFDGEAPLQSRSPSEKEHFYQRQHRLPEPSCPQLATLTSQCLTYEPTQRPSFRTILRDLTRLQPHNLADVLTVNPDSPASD
Tyk2/JAK2 (heterodimeric complex), sequence (P29597 whole entry, other chains not shown): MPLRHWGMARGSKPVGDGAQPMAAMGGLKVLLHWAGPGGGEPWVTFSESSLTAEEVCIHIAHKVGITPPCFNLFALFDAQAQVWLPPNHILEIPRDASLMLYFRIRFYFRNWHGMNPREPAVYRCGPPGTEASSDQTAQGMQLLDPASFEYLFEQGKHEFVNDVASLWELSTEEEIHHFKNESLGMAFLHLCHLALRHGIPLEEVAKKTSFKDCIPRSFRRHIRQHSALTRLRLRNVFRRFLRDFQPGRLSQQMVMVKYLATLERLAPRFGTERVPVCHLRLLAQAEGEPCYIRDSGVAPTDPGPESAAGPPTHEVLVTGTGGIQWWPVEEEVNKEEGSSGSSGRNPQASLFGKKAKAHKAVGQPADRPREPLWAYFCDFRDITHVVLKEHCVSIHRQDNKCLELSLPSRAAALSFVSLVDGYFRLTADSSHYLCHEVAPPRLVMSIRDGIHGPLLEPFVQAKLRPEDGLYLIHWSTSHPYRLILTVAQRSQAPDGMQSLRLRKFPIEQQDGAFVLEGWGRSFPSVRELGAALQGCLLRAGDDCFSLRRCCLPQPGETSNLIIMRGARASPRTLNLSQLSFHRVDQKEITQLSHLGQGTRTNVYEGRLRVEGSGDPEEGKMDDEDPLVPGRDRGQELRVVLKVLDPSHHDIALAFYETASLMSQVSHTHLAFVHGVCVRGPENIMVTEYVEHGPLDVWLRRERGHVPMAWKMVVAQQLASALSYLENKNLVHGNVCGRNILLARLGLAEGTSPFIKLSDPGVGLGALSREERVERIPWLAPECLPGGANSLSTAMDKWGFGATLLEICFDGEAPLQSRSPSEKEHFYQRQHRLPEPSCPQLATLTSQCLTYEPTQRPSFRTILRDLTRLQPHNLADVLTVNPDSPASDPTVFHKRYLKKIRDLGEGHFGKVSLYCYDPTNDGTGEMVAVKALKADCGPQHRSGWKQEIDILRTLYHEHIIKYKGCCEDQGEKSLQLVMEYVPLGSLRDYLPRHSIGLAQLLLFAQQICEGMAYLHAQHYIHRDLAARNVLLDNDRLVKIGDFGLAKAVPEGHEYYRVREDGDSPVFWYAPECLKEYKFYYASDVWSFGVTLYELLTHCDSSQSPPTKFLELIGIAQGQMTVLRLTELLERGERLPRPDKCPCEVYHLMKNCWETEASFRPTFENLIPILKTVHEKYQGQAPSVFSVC
Tyk2 kinase domain (DH1), sequence (P29597 897-1176): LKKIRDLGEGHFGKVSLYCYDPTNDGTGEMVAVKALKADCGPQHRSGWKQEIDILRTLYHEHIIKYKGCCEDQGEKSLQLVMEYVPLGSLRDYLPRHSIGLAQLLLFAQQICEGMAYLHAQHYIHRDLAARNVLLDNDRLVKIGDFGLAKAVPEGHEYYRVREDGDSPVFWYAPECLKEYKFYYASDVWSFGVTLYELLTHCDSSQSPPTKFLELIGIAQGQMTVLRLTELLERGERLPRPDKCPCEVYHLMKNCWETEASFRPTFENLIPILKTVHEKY
JAK2 kinase domain (JH1), sequence (O60674 849-1124): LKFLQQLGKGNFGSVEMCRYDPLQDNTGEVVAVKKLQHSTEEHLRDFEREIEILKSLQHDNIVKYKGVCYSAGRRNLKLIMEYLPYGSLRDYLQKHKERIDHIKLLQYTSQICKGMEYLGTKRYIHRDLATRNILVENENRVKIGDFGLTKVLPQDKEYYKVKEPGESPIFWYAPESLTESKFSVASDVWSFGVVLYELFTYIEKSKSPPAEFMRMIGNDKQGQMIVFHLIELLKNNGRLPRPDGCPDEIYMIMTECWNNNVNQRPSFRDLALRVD

IC50 [1] [nM] | inhibition at 10 µM (Tyk2 kinase domain (DH1); compound at 10 μM, ATP 10 μM) [%] | Kd [2] [nM] | inhibition at 10 µM (JAK2 kinase domain (JH1); compound at 10 μM, ATP 10 μM) [%] | inhibition at 10 µM (Tyk2 kinase domain (DH1); 10 μM compound, 10 μM ATP) [%] | inhibition at 10 µM (JAK2 kinase domain (JH1); 10 μM compound, 10 μM ATP) [%] | IC50 [3] [nM] | SMILES
100 to 500 | < 50 | 0.2 to 1 | < 50 |  |  |  | CNc1cc(Nc2cccn(-c3nn(C)cc3C)c2=O)nc2c(C(=O)N[C@H]3C[C@H]3F)cnn12 [I-405]
< 100 |  | < 0.2 |  |  |  |  | CNc1cc(Nc2cccn([C@@H]3CC[C@H]3O)c2=O)nc2c(C(=O)N[C@@H]3CC[C@H]3OC)cnn12 [I-1309]
< 100 |  |  |  |  |  |  | CNc1cc(Nc2cccn([C@H]3CCCC[C@H]3OC)c2=O)nc2c(C(=O)N[C@H]3CC[C@@H]3OC)cnn12 [I-1377]
< 100 |  | 0.2 to 1 |  |  |  |  | CNc1cc(-c2cn([C@@H]3CCCOC3)c3ncccc23)nc2c(C(=O)N[C@H]3CC[C@@H]3OC)cnn12 [I-1364]
< 100 |  | 0.2 to 1 |  |  |  |  | CNc1cc(Nc2cccn([C@H]3CCC[C@H](OC)C3)c2=O)nc2c(C(=O)N[C@@H]3CC[C@H]3OC)cnn12 [I-1374]
< 100 |  | < 0.2 |  |  |  |  | CNc1cc(Nc2cccn([C@@H]3CC[C@@H]3O)c2=O)nc2c(C(=O)N[C@@H]3CC[C@H]3OC)cnn12 [I-1350]
< 100 |  | 1 to 10 |  |  |  |  | CNC(=O)c1occc1Nc1cc(NC)n2ncc(C(=O)N[C@H]3CC[C@@H]3OC)c2n1 [I-1323]
< 100 |  |  |  |  |  |  | CNc1cc(Nc2cccn3cnnc23)nc2c(C(=O)N[C@H]3CC[C@@H]3OC)cnn12 [I-1343]
< 100 |  | < 0.2 |  |  |  |  | CNc1cc(-c2cn(CCCO)c3ncccc23)nc2c(C(=O)N[C@@H]3CC[C@H]3OC)cnn12 [I-1299]
< 100 | < 50 | < 0.2 | < 50 |  |  |  | CNc1cc(Nc2cccn([C@@H]3CCCOC3)c2=O)nc2c(C(=O)NC3CC3)cnn12 [I-351]
< 100 |  | 0.2 to 1 |  |  |  |  | CNc1cc(Nc2cccn([C@H]3CC[C@@H]3O)c2=O)nc2c(C(=O)N[C@H]3CC[C@@H]3OC)cnn12 [I-1385]
< 100 |  | < 0.2 |  | < 50 | < 50 |  | CNc1cc(Nc2cccn([C@H]3CCC[C@@H](OC)C3)c2=O)nc2c(C(=O)NCC(C)(C)CO)cnn12 [I-861]
100 to 500 | < 50 | < 0.2 | < 50 |  |  |  | CNc1cc(Nc2cccn(-c3ccc(F)cc3)c2=O)nc2c(C(N)=O)cnn12 [I-9]
> 1000 |  | 1 to 10 |  | < 50 | < 50 |  | CNc1cc(Nc2cccn(-c3ncccc3F)c2=O)nc2c(C(=O)O)cnn12 [I-893, 5-((3′-fluoro-2-oxo-2H-[1,2′-bipyridin]-3-yl)amino)-7-(methylamino) pyrazolo[1,5-a]pyrimidine-3-carboxylic acid]
< 100 |  | 1 to 10 |  |  |  |  | CNc1cc(-c2cn([C@@H]3CCN(CCF)C3)c3ncccc23)nc2c(C(=O)N[C@@H]3C[C@@H]3F)cnn12 [I-1366]
< 100 |  | 0.2 to 1 |  |  |  |  | CNc1cc(-c2cn(CCCO)c3ncccc23)nc2c(C(=O)N[C@H]3CC[C@@H]3OC)cnn12 [I-1388]
< 100 |  |  |  |  |  |  | CNc1cc(Nc2cccn(-c3cnn(C)c3F)c2=O)nc2c(C(=O)N[C@H]3CC[C@@H]3OC)cnn12 [I-1369]
< 100 |  | 0.2 to 1 |  |  |  |  | CNc1cc(Nc2cccn([C@H]3CCC[C@H](O)C3)c2=O)nc2c(C(=O)N[C@@H]3CC[C@H]3OC)cnn12 [I-1395]
< 100 |  | 0.2 to 1 |  |  |  |  | CNc1cc(-c2cn(C3CCOCC3)c3ncccc23)nc2c(C(=O)N[C@@H]3CC[C@H]3OC)cnn12 [I-1328]
< 100 |  | < 0.2 |  |  |  |  | CNc1cc(Nc2cc3cccnc3n2C2CC2)nc2c(C(=O)N[C@H]3CC[C@@H]3OC)cnn12 [I-1325]
< 100 |  | < 0.2 |  |  |  |  | CNc1cc(-c2cn(C3CCOCC3)c3ncc(F)cc23)nc2c(C(=O)N[C@H]3CC[C@@H]3O)cnn12 [I-1314]
< 100 |  | 0.2 to 1 |  |  |  |  | CNc1cc(-c2cn([C@H]3CCN(CCF)C3)c3ncccc23)nc2c(C(=O)N[C@@H]3C[C@@H]3F)cnn12 [I-1362]
< 100 |  | < 0.2 |  |  |  |  | CNc1cc(Nc2cccn(-c3ccccn3)c2=O)nc2c(C(=O)N[C@@H]3C[C@H]3OC)cnn12 [I-1286]
< 100 |  | 1 to 10 |  |  |  |  | CNc1cc(Nc2cccn([C@@H]3CCN(CCF)C3)c2=O)nc2c(C(=O)N[C@@H]3CC[C@H]3OC)cnn12 [I-1333]

IC50 [1] [nM] | inhibition at 10 µM (Tyk2 kinase domain (DH1); compound at 10 μM, ATP 10 μM) [%] | Kd [2] [nM] | inhibition at 10 µM (JAK2 kinase domain (JH1); compound at 10 μM, ATP 10 μM) [%] | inhibition at 10 µM (Tyk2 kinase domain (DH1); 10 μM compound, 10 μM ATP) [%] | inhibition at 10 µM (JAK2 kinase domain (JH1); 10 μM compound, 10 μM ATP) [%] | IC50 [3] [nM] | SMILES
< 100 |  |  |  |  |  |  | CNc1cc(Nc2cccn([C@H]3CCC[C@H]3O)c2=O)nc2c(C(=O)N[C@H]3CC[C@@H]3OC)cnn12 [I-1373]
< 100 |  | 1 to 10 |  |  |  |  | CNc1cc(Nc2cccn([C@@H]3CC[C@@H]3O)c2=O)nc2c(C(=O)N[C@H]3CC[C@@H]3OC)cnn12 [I-1411]
< 100 |  | < 0.2 |  |  |  |  | CNc1cc(Nc2cccn(-c3nn(C)cc3F)c2=O)nc2c(C(=O)N[C@@H]3C[C@@H]3F)cnn12 [I-1321]
< 100 |  | 1 to 10 |  |  |  |  | CNc1cc(-c2cn(C(C)C)c3ncc(F)cc23)nc2c(C(=O)N[C@H]3CC[C@H]3O)cnn12 [I-1387]
< 100 |  | 1 to 10 |  |  |  |  | CNc1cc(Nc2cccn3ccnc23)nc2c(C(=O)N[C@@H]3CC[C@H]3OC)cnn12 [I-1133]
< 100 |  | 1 to 10 |  |  |  |  | CNc1cc(Nc2cccn([C@@H]3CCC[C@@H](OC)C3)c2=O)nc2c(C(=O)N[C@H]3CC[C@@H]3OC)cnn12 [I-1331]
100 to 500 | < 50 | < 0.2 | < 50 |  |  |  | CNc1cc(Nc2cccn([C@H]3CC[C@](C)(O)CC3)c2=O)nc2c(C(=O)NC3CC3)cnn12 [I-371]
< 100 |  | < 0.2 |  |  |  |  | CNc1cc(Nc2cccn([C@@H]3CCCN(CCF)C3)c2=O)nc2c(C(=O)N[C@H]3CC[C@@H]3OC)cnn12 [I-1382]
> 1000 | < 50 | 0.2 to 1 | < 50 |  |  |  | CNc1cc(Nc2cccn(-c3nn(C)cc3C)c2=O)nc2c(C(=O)NC3CC3)cnn12 [I-404]
< 100 |  | 0.2 to 1 |  |  |  |  | CNc1cc(Nc2cccn([C@H]3CCN(CCF)C3)c2=O)nc2c(C(=O)N[C@H]3CC[C@@H]3OC)cnn12 [I-1381]
< 100 | < 50 | < 0.2 | < 50 |  |  |  | CNc1cc(Nc2cccn([C@H]3CC[C@](C)(O)CC3)c2=O)nc2c(C(=O)N[C@H]3C[C@H]3F)cnn12 [I-372]
< 100 |  | < 0.2 |  |  |  |  | CNc1cc(Nc2cccn([C@H]3CCC[C@@H](O)C3)c2=O)nc2c(C(=O)N[C@H]3CC[C@@H]3OC)cnn12 [I-1296]
< 100 |  | 1 to 10 |  |  |  |  | CNc1cc(-c2cn([C@H]3CCCOC3)c3ncccc23)nc2c(C(=O)N[C@H]3CC[C@@H]3OC)cnn12 [I-1283]
< 100 | < 50 | < 0.2 | < 50 |  |  |  | CNc1cc(Nc2cccn([C@H]3CC[C@@](C)(O)CC3)c2=O)nc2c(C(=O)N[C@H]3C[C@H]3F)cnn12 [I-370]
 |  | < 0.2 |  | < 50 | < 50 | > 50000 | CNc1cc(Nc2cccn(-c3cnn(C)c3F)c2=O)nc2c(C(=O)N[C@H]3CC[C@@H]3OC)cnn12 [I-1066]
< 100 |  | 0.2 to 1 |  |  |  |  | CNc1cc(Nc2cccn(C3CC(F)(F)C3)c2=O)nc2c(C(=O)N[C@H]3CC[C@@H]3OC)cnn12 [I-1389]
 |  | < 0.2 |  | < 50 | < 50 | > 12500 | CNc1cc(Nc2cccn(-c3ncc(C)s3)c2=O)nc2c(C(=O)N[C@@H]3CC[C@H]3O)cnn12 [I-1070]
 |  | < 0.2 |  | < 50 | < 50 | > 50000 | CNc1cc(Nc2cccn(C3CCC[C@H](OC)C3)c2=O)nc2c(C(=O)NCC(C)(C)CO)cnn12 (some centres unmarked) [I-958]
< 100 |  | < 0.2 |  |  |  |  | CNc1cc(-c2cn([C@H]3CCCOC3)c3ncccc23)nc2c(C(=O)N[C@H]3CC[C@@H]3OC)cnn12 [I-1365]
 |  | < 0.2 |  | < 50 | < 50 | > 50000 | CNc1cc(Nc2cccn([C@H]3CC[C@](C)(OC)CC3)c2=O)nc2c(C(=O)N[C@H]3CC[C@@H]3OC)cnn12 [I-1105]
 |  | < 0.2 |  | < 50 | < 50 | > 50000 | CNc1cc(Nc2cccn([C@@H]3CCN(CCF)C3)c2=O)nc2c(C(=O)NC3CCC3OC)cnn12 (stereo partly drawn) [I-1096, 5-((1-((R)-1-(2-fluoroethyl)pyrrolidin-3-yl)-2-oxo-1,2-dihydropyridin-3-yl)amino)-N-(2-methoxycyclobutyl)-7-(methylamino)pyrazolo[1,5-a]pyrimidine-3-carboxamide]
 |  | < 0.2 |  | < 50 | < 50 | > 2500 | CNc1cc(Nc2cccn3cnnc23)nc2c(C(=O)N[C@H]3CC[C@@H]3OC)cnn12 [I-1102]
 |  | < 0.2 |  | < 50 | < 50 | > 50000 | CNc1cc(Nc2cccn3ccnc23)nc2c(C(=O)N[C@H]3CC[C@@H]3OC)cnn12 [I-1052]
